For assay [1], the target named is Beta-2 adrenergic receptor (Cavia porcellus) (UniProt Q8K4Z4). Nature of the assay: Agonist activity at adrenergic beta2 receptor in Hartley guinea pig tracheal ring assessed as bronchorelaxation activity against histamine-induced contraction relative to isoproterenol. As to conditions: Trachea.
The target in assay [2] is T1, Beta-2 adrenergic receptor (Cavia porcellus, UniProt Q8K4Z4). As to the kind of experiment: Agonist activity at adrenergic beta2 receptor in Hartley guinea pig tracheal ring at basal tone assessed as bronchorelaxation activity.
T1 sequence (Q8K4Z4 whole entry): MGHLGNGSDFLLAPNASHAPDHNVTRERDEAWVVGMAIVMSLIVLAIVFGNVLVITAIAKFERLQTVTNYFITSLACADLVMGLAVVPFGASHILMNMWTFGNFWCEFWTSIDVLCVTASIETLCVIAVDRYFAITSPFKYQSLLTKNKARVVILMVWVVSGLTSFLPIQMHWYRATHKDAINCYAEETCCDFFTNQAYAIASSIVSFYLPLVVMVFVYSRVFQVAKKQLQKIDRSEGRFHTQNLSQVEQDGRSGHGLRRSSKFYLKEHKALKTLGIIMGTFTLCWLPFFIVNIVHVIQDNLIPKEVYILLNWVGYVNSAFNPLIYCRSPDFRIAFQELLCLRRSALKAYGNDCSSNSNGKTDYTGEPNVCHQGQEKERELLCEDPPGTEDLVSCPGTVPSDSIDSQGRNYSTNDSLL
Assay [3] deals with T1, Beta-2 adrenergic receptor. Nature of the assay: Agonist activity at adrenergic beta2 receptor in Hartley guinea pig tracheal ring assessed as bronchorelaxation activity against histamine-induced contraction. More on the design: species or system Trachea.

From ChEMBL document CHEMBL3393004, “Insights on the role of boron containing moieties in the design of new potent and efficient agonists targeting the β2 adrenoceptor” (Bioorg Med Chem Lett, 2015) come the findings set out here.

pEC50, pKd: −log10 of the molar value.

Sequence of Beta-2 adrenergic receptor (Cavia porcellus) (Q8K4Z4 whole entry, looked up): as the sequence (Q8K4Z4 whole entry) above

In the case of `CC(C)(C)NCC(O)c1ccc(O)c(CO)c1` (configuration not stated), the Efficacy in assay [1] came out at 68%.

One may read the pKd as the Kd on a negative log10 scale, so that one unit is a factor of ten. Turning to `CC(C)NCC(O)c1ccc(O)c(O)c1` (configuration not stated) [ISOPROTERENOL], the pKd in assay [2] was 7.60; in assay [3], 7.75.

As a reminder, the pEC50 is the EC50 on a negative log10 scale, so that one unit is a factor of ten. On to `CC(C)C[B-]1(O)OCc2cc([C@@H](O)C[NH2+]C(C)(C)C)ccc2O1` (some centres not stated), for which the pKd in assay [2] is 8.29. Also, in assay [3], the pEC50 was at least 6.55 and the pKd is 7.55. The Efficacy in assay [1] was determined as 94%.
